From ChEMBL document CHEMBL4049438, “Discovery and Optimization of Isoquinoline Ethyl Ureas as Antibacterial Agents” (J Med Chem, 2017)
In brackets after ≈: the same amount, converted by molar mass.

Experiments:
[1] = Volume of distribution in steady state in Wistar rat at 0.64 mg/kg, iv administered as solution up to 24 hrs by LC-MS/MS analysis; type: ADME, organism-based; settings: in vivo, read-out: Vdss
[2] = AUC in Wistar rat at 0.64 mg/kg, iv administered as solution up to 24 hrs by LC-MS/MS analysis; type: ADME, organism-based; parameters: time < 24 hr, dose 0.64 mg/kg, route intravenous; settings: in vivo
[3] = tested on: Rattus norvegicus; assay: Half life in Wistar rat assessed as [3-(3-Ethyl-ureido)-5-(2-methyl-pyridin-4-yl)-isoquinolin-8-ylmethyl]-carbamic Acid Methyl Ester at 0.64 mg/kg, iv administered as solution up to 24 hrs by LC-MS/MS analysis; type: ADME, organism-based; settings: in vivo
[4] = Half life in mouse blood at 1 uM by LC-MS/MS analysis; type: ADME, tissue-based
[5] = tested on: Rattus norvegicus; assay: Cmax in Wistar rat assessed as [3-(3-Ethyl-ureido)-5-(2-methyl-pyridin-4-yl)-isoquinolin-8-ylmethyl]-carbamic Acid Methyl Ester at […], po administered as suspension up to 24 hrs by LC-MS/MS analysis; type: ADME, organism-based; settings: in vivo
[6] = tested on: Staphylococcus aureus; assay: Antibacterial activity against methicillin-sensitive Staphylococcus aureus A-1178 infected in neutropenic mouse assessed as change in bacterial burden in thighs at 38.4 mg/kg, iv administered every 2.75 hrs for 2 times measured 6.5 hrs post infection; type: functional
[7] = tested on: Staphylococcus aureus; assay: Antibacterial activity against methicillin-sensitive Staphylococcus aureus A-1178 infected in neutropenic mouse assessed as change in bacterial burden in thighs at […], iv administered every 2.75 hrs for 2 times measured 6.5 hrs post infection; type: functional
[8] = tested on: Rattus norvegicus; assay: AUC in Wistar rat assessed as [3-(3-Ethyl-ureido)-5-(2-methyl-pyridin-4-yl)-isoquinolin-8-ylmethyl]-carbamic Acid Methyl Ester at […], po administered as suspension up to 24 hrs by LC-MS/MS analysis; type: ADME, organism-based; settings: in vivo
[9] = Half life in Wistar rat at 0.64 mg/kg, iv administered as solution up to 24 hrs by LC-MS/MS analysis; type: ADME, organism-based; settings: in vivo
[10] = tested on: Rattus norvegicus; assay: AUC in Wistar rat assessed as [3-(3-Ethyl-ureido)-5-(2-methyl-pyridin-4-yl)-isoquinolin-8-ylmethyl]-carbamic Acid Methyl Ester at 0.64 mg/kg, iv administered as solution up to 24 hrs by LC-MS/MS analysis; type: ADME, organism-based; parameters: time < 24 hr, dose 0.64 mg/kg, route intravenous; settings: in vivo
[11] = Stability of the compound at room temperature for weeks; type: physicochemical
[12] = tested on: Rattus norvegicus; assay: Volume of distribution in steady state in Wistar rat assessed as [3-(3-Ethyl-ureido)-5-(2-methyl-pyridin-4-yl)-isoquinolin-8-ylmethyl]-carbamic Acid Methyl Ester at 0.64 mg/kg, iv administered as solution up to 24 hrs by LC-MS/MS analysis; type: ADME, organism-based; settings: in vivo
[13] = Clearance in Wistar rat at 0.64 mg/kg, iv administered as solution up to 24 hrs by LC-MS/MS analysis; type: ADME, organism-based; settings: in vivo
[14] = tested on: Rattus norvegicus; assay: Oral bioavailability in Wistar rat assessed as [3-(3-Ethyl-ureido)-5-(2-methyl-pyridin-4-yl)-isoquinolin-8-ylmethyl]-carbamic Acid Methyl Ester at […] administered as suspension up to 24 hrs by LC-MS/MS analysis; type: ADME, organism-based; settings: in vivo
[15] = tested on: Rattus norvegicus; assay: Tmax in Wistar rat assessed as [3-(3-Ethyl-ureido)-5-(2-methyl-pyridin-4-yl)-isoquinolin-8-ylmethyl]-carbamic Acid Methyl Ester at […], po administered as suspension up to 24 hrs by LC-MS/MS analysis; type: ADME, organism-based; settings: in vivo
[16] = tested on: Rattus norvegicus; assay: AUC in Wistar rat at […], po administered as suspension up to 24 hrs by LC-MS/MS analysis; type: ADME, organism-based; settings: in vivo, BLD = below limit of detection
[17] = Half life in rat blood at 1 uM by LC-MS/MS analysis; type: ADME, tissue-based
[18] = Solubility of compound in water at pH 6.3; type: physicochemical
[19] = Half life in human blood at 1 uM by LC-MS/MS analysis; type: ADME, tissue-based

CCNC(=O)Nc1cc2c(-c3cc[n+](COP(=O)([O-])O)c(C)c3)ccc(CNC(=O)OC)c2cn1
Vd [1]: 0.5 L/kg | AUC at 24 h [2]: 79 ng·h/mL | t1/2 [3]: 48 min | half-life at 1 µM [4]: 96 min | Cmax [5]: 250 ng/mL | Activity [6]: < -4.8 deltalog10CFU | Activity [7]: -3.6 deltalog10CFU | AUC [8]: 310 ng·h/mL | half-life [9]: 12 min | AUC [10]: 301 ng·h/mL | Stability [11]: Stable | Vdss [12]: 1.1 L/kg | clearance [13]: 130 mL/min/kg | F [14]: 30% | Tmax [15]: 30 min | AUC [16]: Bld | half-life at 1 µM [17]: 60 min | solubility [18]: 12.7 mg/mL (≈ 25.2 mM) | half-life at 1 µM [19]: 18 min
